# Assay results as given in article PMC6267478, “Heterologous Expression of a Thermostable β-1,3-Galactosidase and Its Potential in Synthesis of Galactooligosaccharides” (Marine Drugs, 2018).
# System: T1, rMaBGA (recombinant β-1,3-galactosidase MaBGA)
# T1 construct: full-length ORF in pET-22b(+) NdeI/XhoI, 6xHis tag (C-terminal by vector and primer design), E. coli BL21(DE3), IMAC + SEC, 66 kDa on SDS-PAGE; primers imply N-terminus MKLGVCYY and native C-terminus AIWQEI before LE-His tag
# Test: ONP release at […] nm, nonlinear Michaelis-Menten fit
# Format: biochemical, Marinomonas sp. BSi20414
# Conditions: 50 mM PBS pH 7.0, 37 °C (general activity assay); 0.25-5 mM ONPG
smiles,measurement,value
O=[N+]([O-])c1ccccc1O[C@@H]1O[C@H](CO)[C@H](O)[C@H](O)[C@H]1O [ONPG],Km,6.85 mM
